According to patent publication US20240376085A1 (Janssen Pharmaceutica NV, priority 2021, published 2024):

Tests used:
IL-17A : IL-17RA binding = target: T1, IL-17A : IL-17RA binding (Homo sapiens, UniProt Q16552, K93Q); test: IL-17A(FLAG-tagged):IL-17RA(His-tagged) binding disruption Eu-HTRF assay, Protocol 1; conditions: FLAG-IL-17A 2.5 nM at 2x final concentration; average if tested more than once
T1 construct: Name: IL-17A-Flag
Summary of the method: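 IC50 came from a one-site competition fit of the acceptor/donor (665/620 nm) HTRF ratio. His-tagged IL-17RA, Eu-anti-FLAG and D2-anti-His were added after a 1 h rt compound preincubation with FLAG-tagged IL-17A dimer in PBS/0.01% Triton X-100, followed by 2 h at rt before reading.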

[1] = system: IL-17A-induced G-CSF production in human normal keratinocyte (NHK); test: NHK assay: IL-17A-induced G-CSF production in normal human keratinocytes; type: cell-based; conditions: Homo sapiens, Keratinocyte, 24 h, IL-17A 5 ng/mL, average if tested more than once
Summary of the method: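 IC50 derives from G-CSF in supernatants, quantified by HTRF from a standard curve, with CellTiter-Glo viability compared to DMSO control. Before a 24 h, 37°C culture of normal human keratinocytes at 3000–4000 cells/well, compound dilutions were preincubated 1 h at rt with human IL-17A (5 ng/mL final), with 0.2% DMSO and 5% FBS.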

T1 sequence (Q16552 with tags, fused parts or gaps K93Q): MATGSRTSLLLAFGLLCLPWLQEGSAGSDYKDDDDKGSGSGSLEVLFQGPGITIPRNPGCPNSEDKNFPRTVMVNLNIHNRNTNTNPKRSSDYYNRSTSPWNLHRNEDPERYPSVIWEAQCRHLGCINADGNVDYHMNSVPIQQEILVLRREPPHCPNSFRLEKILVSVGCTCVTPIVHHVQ

Structure (SMILES) | IC50 (IL-17A : IL-17RA binding) [nM] | IC50 [1] [nM]
CC(C)n1nccc1C(=O)N[C@@H](COC(C)(C)C(F)(F)F)c1nc2cc([C@H](NC(=O)CC3CC(F)(F)C3)C3CC3)ccc2[nH]1 [Example 160, N—((R)-1-(5-((R)-Cyclopropyl(2-(3,3-difluorocyclobutyl)acetamido)methyl)-1H-benzo[d]imidazol-2-yl)-2-((1,1,1-trifluoro-2-methylpropan-2-yl)oxy)ethyl)-1-isopropyl-1H-pyrazole-5-carboxamide] | < 50 | < 50
CC(C)(OC[C@H](NC(=O)c1nonc1C1CC1)c1nc2cc([C@H](NC(=O)CC34CC(F)(C3)C4)C3CC3)ccc2[nH]1)C(F)(F)F [Example 166, 4-Cyclopropyl-N—((R)-1-(5-((R)-cyclopropyl(2-(3-fluorobicyclo[1.1.1]pentan-1-yl)acetamido)methyl)-1H-benzo[d]imidazol-2-yl)-2-((1,1,1-trifluoro-2-methylpropan-2-yl)oxy)ethyl)-1,2,5-oxadiazole-3-carboxamide] | < 50 | < 50
[2H]C([2H])([2H])n1nccc1C(=O)N[C@@H](COC(C)(C)C(F)(F)F)c1nc2cc([C@H](NC(=O)CC3CC(F)(F)C3)C3CC3)ccc2[nH]1 [Example 167, N—((R)-1-(5-((R)-Cyclopropyl(2-(3,3-difluorocyclobutyl)acetamido)methyl)-1H-benzo[d]imidazol-2-yl)-2-((1,1,1-trifluoro-2-methylpropan-2-yl)oxy)ethyl)-1-(methyl-d3)-1H-pyrazole-5-carboxamide] | 50 to 100 | 50 to 100
CC(C)(O)c1nonc1C(=O)N[C@@H](COC(C)(C)C(F)(F)F)c1nc2cc([C@H](NC(=O)CC3CC(F)(F)C3)C3CC3)ccc2[nH]1 [Example 168, N—((R)-1-(5-((R)-Cyclopropyl(2-(3,3-difluorocyclobutyl)acetamido)methyl)-1H-benzo[d]imidazol-2-yl)-2-((1,1,1-trifluoro-2-methylpropan-2-yl)oxy)ethyl)-4-(2-hydroxypropan-2-yl)-1,2,5-oxadiazole-3-carboxamide] | 50 to 100 | > 100
Cc1nonc1C(=O)N[C@H](c1nc2ccc([C@H](NC(=O)CC3CC(F)(F)C3)C3CC3)cc2[nH]1)C1CCC2(CC1)CC2 (stereo partly drawn) [Example 169, N—((S)-(6-((R)-Cyclopropyl(2-(3,3-difluorocyclobutyl)acetamido)methyl)-1H-benzo[d]imidazol-2-yl)(spiro[2.5]octan-6-yl)methyl)-4-methyl-1,2,5-oxadiazole-3-carboxamide] | < 50 | < 50
O=C(CC1CC(F)(F)C1)N[C@@H](c1ccc2nc([C@@H](NC(=O)c3nonc3C3CC3)[C@H]3CCCC(F)(F)C3)[nH]c2c1)C1CC1 [Example 170, 4-Cyclopropyl-N—((S)-(6-((R)-cyclopropyl(2-(3,3-difluorocyclobutyl)acetamido)methyl)-1H-benzo[d]imidazol-2-yl)((S)-3,3-difluorocyclohexyl)methyl)-1,2,5-oxadiazole-3-carboxamide] | < 50 | < 50
O=C(CC1CC(F)(F)C1)N[C@@H](c1ccc2nc([C@@H](NC(=O)c3nonc3C3CC3)[C@@H]3CCCC(F)(F)C3)[nH]c2c1)C1CC1 [Example 171, 4-Cyclopropyl-N—((S)-(6-((R)-cyclopropyl(2-(3,3-difluorocyclobutyl)acetamido)methyl)-1H-benzo[d]imidazol-2-yl)((R)-3,3-difluorocyclohexyl)methyl)-1,2,5-oxadiazole-3-carboxamide] | 50 to 100 | < 50
CC(C)n1nccc1C(=O)N[C@@H](CC(C)(C)C(F)(F)F)c1nc2ccc([C@H](NC(=O)CC3CC(F)(F)C3)C3CC3)cc2[nH]1 [Example 177, N—((S)-1-(6-((R)-Cyclopropyl(2-(3,3-difluorocyclobutyl)acetamido)methyl)-1H-benzo[d]imidazol-2-yl)-4,4,4-trifluoro-3,3-dimethylbutyl)-1-isopropyl-1H-pyrazole-5-carboxamide] | > 100 | < 50
CC(C)(C[C@H](NC(=O)c1nonc1C1CC1)c1nc2ccc([C@H](NC(=O)CC3CC(F)(F)C3)C3CC3)cc2[nH]1)C(F)(F)F [Example 178, 4-Cyclopropyl-N—((S)-1-(6-((R)-cyclopropyl(2-(3,3-difluorocyclobutyl)acetamido)methyl)-1H-benzo[d]imidazol-2-yl)-4,4,4-trifluoro-3,3-dimethylbutyl)-1,2,5-oxadiazole-3-carboxamide] | < 50 | < 50
CC(C)(C[C@H](NC(=O)c1nonc1C1CC1)c1nc2ccc([C@H](NC(=O)CCC(F)F)C3CC3)cc2[nH]1)C(F)(F)F [Example 185, 4-Cyclopropyl-N—((S)-1-(6-((R)-cyclopropyl(4,4-difluorobutanamido)methyl)-1H-benzo[d]imidazol-2-yl)-4,4,4-trifluoro-3,3-dimethylbutyl)-1,2,5-oxadiazole-3-carboxamide] | < 50 | > 100
Cc1nonc1C(=O)N[C@@H](CC(C)(C)C(F)(F)F)c1nc2ccc([C@H](NC(=O)CC3CC(F)(F)C3)C3CC3)cc2[nH]1 [Example 186, N—((S)-1-(6-((R)-Cyclopropyl(2-(3,3-difluorocyclobutyl)acetamido)methyl)-1H-benzo[d]imidazol-2-yl)-4,4,4-trifluoro-3,3-dimethylbutyl)-4-methyl-1,2,5-oxadiazole-3-carboxamide] | < 50 | 50 to 100
CC(C)c1nnsc1C(=O)N[C@H](c1nc2cc([C@@H](C)NC(=O)CCC(F)(F)F)ccc2[nH]1)C1CCC(F)(F)CC1 [Example 188, N—((S)-(4,4-Difluorocyclohexyl)(5-((R)-1-(4,4,4-trifluorobutanamido)ethyl)-1H-benzo[d]imidazol-2-yl)methyl)-4-isopropyl-1,2,3-thiadiazole-5-carboxamide] | > 100 | > 100
CC(C)n1ncnc1C(=O)N[C@H](c1nc2cc([C@@H](C)NC(=O)CCC(F)(F)F)ccc2[nH]1)C1CCC(F)(F)CC1 [Example 199, N—((S)-(4,4-Difluorocyclohexyl)(5-((R)-1-(4,4,4-trifluorobutanamido)ethyl)-1H-benzo[d]imidazol-2-yl)methyl)-1-isopropyl-1H-1,2,4-triazole-5-carboxamide] | > 100 | > 100
CC(C)c1scnc1C(=O)N[C@H](c1nc2cc([C@@H](C)NC(=O)CCC(F)(F)F)ccc2[nH]1)C1CCC(F)(F)CC1 [Example 200, N—((S)-(4,4-Difluorocyclohexyl)(5-((R)-1-(4,4,4-trifluorobutanamido)ethyl)-1H-benzo[d]imidazol-2-yl)methyl)-5-isopropylthiazole-4-carboxamide] | 50 to 100 | 50 to 100
C[C@@H](NC(=O)CCC(F)(F)F)c1ccc2[nH]c([C@@H](NC(=O)c3nc(CCC(F)(F)F)cs3)C3CCC(F)(F)CC3)nc2c1 [Example 201, N—((S)-(4,4-Difluorocyclohexyl)(5-((R)-1-(4,4,4-trifluorobutanamido)ethyl)-1H-benzo[d]imidazol-2-yl)methyl)-4-(3,3,3-trifluoropropyl) thiazole-2-carboxamide] | > 100 | > 100
CC(C)c1oncc1C(=O)N[C@H](c1nc2cc([C@@H](C)NC(=O)CCC(F)(F)F)ccc2[nH]1)C1CCC(F)(F)CC1 [Example 202, N—((S)-(4,4-Difluorocyclohexyl)(5-((R)-1-(4,4,4-trifluorobutanamido)ethyl)-1H-benzo[d]imidazol-2-yl)methyl)-5-isopropylisoxazole-4-carboxamide] | < 50 | < 50
CC(C)c1ncsc1C(=O)N[C@H](c1nc2cc([C@@H](C)NC(=O)CCC(F)(F)F)ccc2[nH]1)C1CCC(F)(F)CC1 [Example 203, N—((S)-(4,4-Difluorocyclohexyl)(5-((R)-1-(4,4,4-trifluorobutanamido)ethyl)-1H-benzo[d]imidazol-2-yl)methyl)-4-isopropylthiazole-5-carboxamide] | > 100 | > 100
CC(C)c1nocc1C(=O)N[C@H](c1nc2cc([C@@H](C)NC(=O)CCC(F)(F)F)ccc2[nH]1)C1CCC(F)(F)CC1 [Example 204, N—((S)-(4,4-Difluorocyclohexyl)(5-((R)-1-(4,4,4-trifluorobutanamido)ethyl)-1H-benzo[d]imidazol-2-yl)methyl)-3-isopropylisoxazole-4-carboxamide] | < 50 | < 50
CC(C)c1ccsc1C(=O)N[C@H](c1nc2cc([C@@H](C)NC(=O)CCC(F)(F)F)ccc2[nH]1)C1CCC(F)(F)CC1 [Example 205, N—((S)-(4,4-Difluorocyclohexyl)(5-((R)-1-(4,4,4-trifluorobutanamido)ethyl)-1H-benzo[d]imidazol-2-yl)methyl)-3-isopropylthiophene-2-carboxamide] | < 50 | 50 to 100
CC(C)c1snnc1C(=O)N[C@H](c1nc2cc([C@@H](C)NC(=O)CCC(F)(F)F)ccc2[nH]1)C1CCC(F)(F)CC1 [Example 206, N—((S)-(4,4-Difluorocyclohexyl)(5-((R)-1-(4,4,4-trifluorobutanamido)ethyl)-1H-benzo[d]imidazol-2-yl)methyl)-5-isopropyl-1,2,3-thiadiazole-4-carboxamide] | 50 to 100 | < 50
CC(C)c1ocnc1C(=O)N[C@H](c1nc2cc([C@@H](C)NC(=O)CCC(F)(F)F)ccc2[nH]1)C1CCC(F)(F)CC1 [Example 207, N—((S)-(4,4-Difluorocyclohexyl)(5-((R)-1-(4,4,4-trifluorobutanamido)ethyl)-1H-benzo[d]imidazol-2-yl)methyl)-5-isopropyloxazole-4-carboxamide] | 50 to 100 | > 100
